# Source: patent publication US20090088373A1, “USE OF COMPOSITIONS TO ENHANCE INNATE IMMUNE RESPONSE” (priority 2007, published 2009)
# Tested on: cathelicidin
# Assay: Cathelicidin mRNA expression in normal human keratinocytes (NHEK)
# Assay type: cell-based
# Design: Cathelicidin mRNA expression (Mean) / Cathelicidin mRNA expression (means): unit not given here
# Conditions: for Cathelicidin mRNA expression (means): 1 uM tacrolimus, 1 ug/ml CsA, 25ng/ml rapamycin; for Cathelicidin mRNA expression (Means of N = 3): Example 6, 10 nM Pimecrolimus, 1 nM 1,25D3
# Method: To assess the effect of pimecrolimus on the innate immune response of the epidermis, cultures of normal human keratinocytes (NHEK) are stimulated with combinations of a concentration of 10 nM pimecrolimus, 1 μg/ml TLR 2/CD14 ligand—peptidoglycan (PGN), 10 μg/ml lipoteichoic acid (LTA), 2 0.1 μg/ml TLR 2/6 ligand—Malp-, and/or 0.1 μg/ml TLR 4/CD14 ligand—lipopolysaccharide (LPS). Expression of cathelicidin mRNA (Table 3) and protein as well as Human Beta Defensin (HBD) 2 (Table 4) and HBD3 (Table 5) expression in normal human keratinocytes is measured.
# To assess the effect of pimecrolimus on the innate immune response of the epidermis, cultures of normal human keratinocytes (NHEK) are stimulated with a concentration of 10 nM pimecrolimus,1 nM 1.25 D3, 0.1 μg/ml TLR2/6 ligand Malp-2 or their combination. Expression of cathelicidin, CD14 and TLR2 mRNA normal human keratinocytes is measured and evaluated accordingly to the procedures as detailed in Example 2 above.
# To assess the effect of pimecrolimus on the innate immune response of the epidermis, cultures of normal human keratinocytes (NHEK) are stimulated with a concentration of 10 nM pimecrolimus, 1 uM tacrolimus, 1 ug/ml CsA, 25ng/ml rapamycin, or a combination of pimecrolimus and rapamycin, each of these with or without 0.1 μg/ml TLR2/6 ligand Malp-2. Cathelicidin mRNA expression is evaluated.
# To assess the effect of time dependent effects of pimecrolimus on the innate immune response of the epidermis, cultures of normal human keratinocytes (NHEK) are stimulated with 10 nM Pimecrolimus and low dose calciferol (1,25D3) 1 nM for different time points. mRNA expression of cathelicidin, CD14 and TLR2 is analyzed by qPCR.
# To assess the effect of varying levels of pimecrolimus on the innate immune response of the epidermis, cultures of normal human keratinocytes (NHEK) are stimulated with 0 nM, 5 nM, 10 nM, 20 nM, 30 nM, […], […] and 60 nM concentrations of pimecrolimus. Expression of cathelicidin mRNA expression is measured and evaluated accordingly to the procedures as detailed in Example 2 above.
# To assess the effect of calciferol on varying levels of pimecrolimus on the innate immune response of the epidermis, cultures of normal human keratinocytes (NHEK) are stimulated with 0.01 nM, 0.1 nM, 1 nM and 10 nM concentrations of pimecrolimus with or without 1 nM concentrations of calciferol for 24 hours. Expression of cathelicidin mRNA and gene expression of TLR2 is measured and evaluated accordingly to the procedures as detailed in Example 2 above.
smiles,measurement,setting,value
"CC[C@@H]1/C=C(\C)C[C@H](C)C[C@H](OC)[C@H]2O[C@@](O)(C(=O)C(=O)N3CCCC[C@H]3C(=O)O[C@H](/C(C)=C/[C@@H]3CC[C@H](Cl)[C@H](OC)C3)[C@H](C)[C@@H](O)CC1=O)[C@H](C)C[C@@H]2OC [Pimecrolimus, pimecrolimus]",Cathelicidin mRNA expression (Mean),"Example 2, with 10 nM Pimecrolimus + 0.1 μg/ml LPS",8.67
same,Cathelicidin mRNA expression (Mean),"Example 2, with 10 nM Pimecrolimus + 0.1 μg/ml Malp-2",26.08
same,Cathelicidin mRNA expression (Mean),"Example 2, with 10 nM Pimecrolimus + 1 μg/ml PGN",9.81
same,Cathelicidin mRNA expression (Mean),"Example 2, with 10 nM Pimecrolimus + 10 μg/ml LTA",18.56
same,Cathelicidin mRNA expression (Mean),"Example 2, with 10 nM Pimecrolimus, no TLR ligand (control row)",2.64
same,Cathelicidin mRNA expression (Mean),"Example 4, 10 nM pimecrolimus, 1 nM 1.25 D3, 0.1 μg/ml Malp-2 or combination",22.57
same,Cathelicidin mRNA expression (means),"Example 5, Experiment 1, with 0.1 μg/ml Malp-2, 10 nM pimecrolimus",2.98
same,Cathelicidin mRNA expression (means),"Example 5, Experiment 1, without Malp-2, 10 nM pimecrolimus",1.33
same,Cathelicidin mRNA expression (means),"Example 5, Experiment 2, with 0.1 μg/ml Malp-2, 10 nM pimecrolimus",3.07
same,Cathelicidin mRNA expression (means),"Example 5, Experiment 2, without Malp-2, 10 nM pimecrolimus",2.40
same,Cathelicidin mRNA expression (Means of N = 3),0 h,1.20
same,Cathelicidin mRNA expression (Means of N = 3),8 h,1.82
same,Cathelicidin mRNA expression (Means of N = 3),24 h,1.75
same,Cathelicidin mRNA expression (Means of N = 3),48 h,2.06
same,Concentration at which cathelicidin mRNA expression peaks (bell-shaped dose response),Example 7,20 nM
same,Cathelicidin mRNA expression (Mean),"Example 7, 5 nM PIM",1.46
same,Cathelicidin mRNA expression (Mean),"Example 7, 10 nM Pim",2.26
same,Cathelicidin mRNA expression (Mean),"Example 7, 20 nM Pim",82.72
same,Cathelicidin mRNA expression (Mean),"Example 7, 40 nM Pim",3.37
same,Cathelicidin mRNA expression (Mean),"Example 7, 60 nM Pim",1.78
same,Cathelicidin mRNA expression (Mean),"Example 8, 0.01 nM PIM with 1 nM 1.25D3, 24 hours",4.56
same,Cathelicidin mRNA expression (Mean),"Example 8, 0.01 nM PIM, no 1.25D3, 24 hours",1.04
same,Cathelicidin mRNA expression (Mean),"Example 8, 0.1 nM PIM with 1 nM 1.25D3, 24 hours",4.19
same,Cathelicidin mRNA expression (Mean),"Example 8, 0.1 nM PIM, no 1.25D3, 24 hours",0.47
same,Cathelicidin mRNA expression (Mean),"Example 8, 1 nM PIM with 1 nM 1.25D3, 24 hours",10.92
same,Cathelicidin mRNA expression (Mean),"Example 8, 1 nM PIM, no 1.25D3, 24 hours",1.61
same,Cathelicidin mRNA expression (Mean),"Example 8, 10 nM PIM with 1 nM 1.25D3, 24 hours",99.45
same,Cathelicidin mRNA expression (Mean),"Example 8, 10 nM PIM, no 1.25D3, 24 hours",9.81
same,"Increase of cathelicidin mRNA expression, pimecrolimus in conjunction with calciferol versus pimecrolimus alone","at the 1 nM and 10 nM concentrations of pimecrolimus, 1 nM calciferol",> 2 times
same,Transcript and protein abundance of antimicrobial genes (in words),"in the presence of Toll 2/6 ligand Malp-2, summary of Tables 3-5 (cathelicidin, HBD2, HBD3)",increases transcript and protein abundance of antimicrobial genes
same,Cathelicidin transcript abundance (in words),"in the presence of low dose 1,25D3 and Malp-2",enhances cathelicidin transcript abundance
